We go through 13 molecules from patent US7880007B2, “Bicyclic substituted phenyl piperidine modulators of muscarinic receptors” (Vertex Pharmaceuticals Incorporated, priority 2004, dated 2011).

Some results are limits rather than exact numbers.

Type in all cases: cell-based
For one test, the target named is T1, M1 muscarinic receptor (Homo sapiens, UniProt P11229).
T1 construct: expressed in transfected cells; host or cells: CHO (M1-CHO)
T1 sequence (P11229 1-460): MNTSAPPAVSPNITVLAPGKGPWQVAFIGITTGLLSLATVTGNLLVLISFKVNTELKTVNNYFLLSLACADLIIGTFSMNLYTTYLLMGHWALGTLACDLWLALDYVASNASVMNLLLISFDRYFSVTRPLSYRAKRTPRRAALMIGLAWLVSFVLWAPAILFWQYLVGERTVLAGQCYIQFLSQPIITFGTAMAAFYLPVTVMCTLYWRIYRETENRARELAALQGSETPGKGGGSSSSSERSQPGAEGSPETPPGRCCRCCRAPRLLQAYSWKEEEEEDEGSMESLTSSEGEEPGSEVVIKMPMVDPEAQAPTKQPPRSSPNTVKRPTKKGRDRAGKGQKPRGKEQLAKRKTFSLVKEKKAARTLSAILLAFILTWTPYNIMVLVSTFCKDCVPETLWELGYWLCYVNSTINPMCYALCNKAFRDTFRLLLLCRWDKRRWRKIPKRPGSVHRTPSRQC
Put plainly: Functional mobilization of intracellular calcium (FLIPR), M1-CHO cells. Particulars: for Emax: 100% efficacy = maximum response obtained with the Carbachol control; for M1 Activity: M1-CHO cells, calcium mobilization (FLIPR). The procedure, abridged:
(§1)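 FLIPR fluorescence (ex 488, em 540 nm) recorded 60 sec after compound addition to dye-loaded CHO cells. Agonist mode: compound alone. Antagonist mode: 15 min compound pre-incubation, then carbachol at EC80, or co-application. Efficacy expressed as % of maximal carbachol response.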
For orientation: A change in cytosolic calcium serves as a functional read-out for many receptors and channels.

For the next test, the target named is T2, M2 muscarinic receptor (Homo sapiens, UniProt P08172).
T2 construct: expressed in transfected cells; host or cells: CHO (M2-CHO)
T2 sequence (P08172 1-466): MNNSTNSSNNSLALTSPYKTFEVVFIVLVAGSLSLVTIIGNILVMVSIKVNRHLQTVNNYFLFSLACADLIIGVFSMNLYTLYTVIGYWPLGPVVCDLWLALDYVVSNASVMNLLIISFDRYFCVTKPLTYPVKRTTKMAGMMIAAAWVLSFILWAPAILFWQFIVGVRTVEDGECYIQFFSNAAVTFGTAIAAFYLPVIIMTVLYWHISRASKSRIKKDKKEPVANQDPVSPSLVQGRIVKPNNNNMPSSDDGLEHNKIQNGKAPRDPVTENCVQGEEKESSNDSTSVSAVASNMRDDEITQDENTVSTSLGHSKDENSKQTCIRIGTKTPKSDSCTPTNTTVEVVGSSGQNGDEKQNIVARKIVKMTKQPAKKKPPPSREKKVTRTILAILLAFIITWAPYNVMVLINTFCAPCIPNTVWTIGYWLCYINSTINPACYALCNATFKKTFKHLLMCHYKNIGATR
The test is described as follows: Functional mobilization of intracellular calcium (FLIPR), M2-CHO cells. Particulars: for Emax: 100% efficacy = maximum response obtained with the Carbachol control; for M2 Activity: M2-CHO cells, calcium mobilization (FLIPR). The essentials: as §1

The next test concerns the target T3, M3 muscarinic receptor (Homo sapiens, UniProt P20309).
T3 construct: expressed in transfected cells; host or cells: CHO (M3-CHO)
The test is described as follows: Functional mobilization of intracellular calcium (FLIPR), M3-CHO cells. The following applies: for Emax: 100% efficacy = maximum response obtained with the Carbachol control; for M3 Activity: M3-CHO cells, calcium mobilization (FLIPR). The procedure, abridged: as §1

For another test, the target named is T4, M4 muscarinic receptor (Homo sapiens, UniProt P08173).
T4 construct: expressed in transfected cells; host or cells: CHO (M4-CHO)
T4 sequence (P08173 1-479): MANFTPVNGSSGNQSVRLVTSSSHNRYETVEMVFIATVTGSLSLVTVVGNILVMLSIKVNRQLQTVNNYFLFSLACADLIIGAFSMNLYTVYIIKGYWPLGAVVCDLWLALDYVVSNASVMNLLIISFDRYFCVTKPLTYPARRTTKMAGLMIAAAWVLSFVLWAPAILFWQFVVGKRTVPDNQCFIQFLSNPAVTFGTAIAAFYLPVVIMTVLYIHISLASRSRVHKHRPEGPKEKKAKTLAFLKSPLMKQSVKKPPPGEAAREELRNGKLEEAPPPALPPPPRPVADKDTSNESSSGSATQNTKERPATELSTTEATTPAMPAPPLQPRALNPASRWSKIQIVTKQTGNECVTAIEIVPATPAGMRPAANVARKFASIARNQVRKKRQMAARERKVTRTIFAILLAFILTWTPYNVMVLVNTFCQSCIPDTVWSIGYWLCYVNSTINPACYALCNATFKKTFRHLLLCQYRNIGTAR
Put plainly: Functional mobilization of intracellular calcium (FLIPR), M4-CHO cells. Particulars: for Emax: 100% efficacy = maximum response obtained with the Carbachol control; for M4 Activity: M4-CHO cells, calcium mobilization (FLIPR). The essentials:
as §1

T3 sequence (P20309 whole entry): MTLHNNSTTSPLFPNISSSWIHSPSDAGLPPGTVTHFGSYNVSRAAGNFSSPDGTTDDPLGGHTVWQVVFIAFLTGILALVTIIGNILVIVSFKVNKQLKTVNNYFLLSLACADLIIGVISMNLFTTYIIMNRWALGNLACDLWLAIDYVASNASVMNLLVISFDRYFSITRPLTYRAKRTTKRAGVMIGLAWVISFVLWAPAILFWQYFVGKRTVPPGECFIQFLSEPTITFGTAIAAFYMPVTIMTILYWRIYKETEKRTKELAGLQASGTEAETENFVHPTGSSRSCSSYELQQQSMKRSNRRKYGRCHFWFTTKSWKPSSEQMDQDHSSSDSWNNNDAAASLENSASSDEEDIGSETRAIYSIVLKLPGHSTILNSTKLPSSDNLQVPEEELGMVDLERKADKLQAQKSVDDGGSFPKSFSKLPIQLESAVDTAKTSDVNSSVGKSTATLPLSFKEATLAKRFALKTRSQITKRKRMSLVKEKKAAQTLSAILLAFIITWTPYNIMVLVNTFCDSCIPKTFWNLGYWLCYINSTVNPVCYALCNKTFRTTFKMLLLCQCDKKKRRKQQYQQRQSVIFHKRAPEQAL

For the molecule `COC(=O)c1ccc(-c2ccccc2C2CCN([C@H]3C[C@H]4CC[C@H]3C4)CC2)cc1` [Compound 251], at M1 muscarinic receptor, the maximal effect (Emax) (commonly the greatest response seen or fitted, relative to the assay's reference) fell in the range of 25 to 100% and the “M1 Activity” value is given as “+ (activity was measured to be greater than 5.0 μM)”. For the same molecule, at M2 muscarinic receptor, the Emax lay in the range of 25 to 100% and the “M2 Activity” value is on record as “+ (activity was measured to be greater than 5.0 μM)”. At M3 muscarinic receptor, the Emax was below 25% and the “M3 Activity” value is on record as “+ (activity was measured to be greater than 5.0 μM)”. Also, on M4 muscarinic receptor, the Emax was in the range of 25 to 100% and the “M4 Activity” value is recorded as “+++ (activity was measured to be less than 1.0 μM)”.

Regarding `Cc1ccccc1C1(O)CCN(C2CC3CCC2C3)CC1` (stereo not drawn) [Compound 252], on M1 muscarinic receptor, the Emax is below 25% and the “M1 Activity” value is listed as “+ (activity was measured to be greater than 5.0 μM)”. In addition, on M2 muscarinic receptor, the Emax was below 25% and the “M2 Activity” value is on record as “+ (activity was measured to be greater than 5.0 μM)”. At M3 muscarinic receptor, the “M3 Activity” value is “+ (activity was measured to be greater than 5.0 μM)”. For the same molecule, at M4 muscarinic receptor, the Emax was below 25% and the “M4 Activity” value was “+ (activity was measured to be greater than 5.0 μM)”.

Take `CCOC(=O)N1CCC(CN2CCC(F)(c3cc(F)ccc3OC)CC2)CC1` [Compound 253]: at M1 muscarinic receptor, the Emax was 25 to 100% and the “M1 Activity” value was “+++ (activity was measured to be less than 1.0 μM)”. At M2 muscarinic receptor, the Emax was below 25% and the “M2 Activity” value is given as “++ (activity was measured to be from 1.0 μM to 5.0 μM)”. Also, at M3 muscarinic receptor, the maximal effect (Emax) is below 25% and the “M3 Activity” value is listed as “+ (activity was measured to be greater than 5.0 μM)”. Besides, on M4 muscarinic receptor, the Emax lay in the range of 25 to 100% and the “M4 Activity” value is recorded as “+++ (activity was measured to be less than 1.0 μM)”.

For the molecule `CCOC(=O)N1C2CCC1CC(N1CCC(c3cc(-c4ccc(CC#N)cc4)ccc3OC)CC1)C2` (stereo not drawn) [Compound 254], at M1 muscarinic receptor, the Emax is 25 to 100% and the “M1 Activity” value is listed as “+ (activity was measured to be greater than 5.0 μM)”. At M2 muscarinic receptor, the maximal effect (Emax) is below 25% and the “M2 Activity” value was “+ (activity was measured to be greater than 5.0 μM)”. On M3 muscarinic receptor, the Emax was below 25% and the “M3 Activity” value is “+ (activity was measured to be greater than 5.0 μM)”. At M4 muscarinic receptor, the Emax lay within 25 to 100% and the “M4 Activity” value is “++ (activity was measured to be from 1.0 μM to 5.0 μM)”.

`COc1ccccc1C1CCN(C2CCC3CCCCC3C2)CC1` (stereo not drawn) [Compound 255]: on M1 muscarinic receptor, the Emax was 25 to 100% and the “M1 Activity” value is reported as “+ (activity was measured to be greater than 5.0 μM)”. In addition, on M2 muscarinic receptor, the Emax is below 25% and the “M2 Activity” value is listed as “+ (activity was measured to be greater than 5.0 μM)”. Moreover, on M3 muscarinic receptor, the maximum response (Emax) lay within 25 to 100% and the “M3 Activity” value was “+ (activity was measured to be greater than 5.0 μM)”. Moreover, on M4 muscarinic receptor, the Emax lay within 25 to 100% and the “M4 Activity” value is listed as “++ (activity was measured to be from 1.0 μM to 5.0 μM)”.

For the molecule `COc1ccc(Cl)cc1C1(F)CCN(CC2CCCCC2)CC1` [Compound 257], on M1 muscarinic receptor, the Emax was below 25% and the “M1 Activity” value is “+ (activity was measured to be greater than 5.0 μM)”. Moreover, at M2 muscarinic receptor, the Emax is below 25% and the “M2 Activity” value is “+ (activity was measured to be greater than 5.0 μM)”. On M3 muscarinic receptor, the Emax was below 25% and the “M3 Activity” value is on record as “+ (activity was measured to be greater than 5.0 μM)”. Moreover, at M4 muscarinic receptor, the Emax was in the range of 25 to 100% and the “M4 Activity” value is listed as “+ (activity was measured to be greater than 5.0 μM)”.

Regarding `CCS(=O)(=O)c1ccc(-c2ccc(OC)c(C3CCN([C@H]4C[C@H]5CC[C@H]4C5)CC3)c2)cc1` [Compound 258], at M1 muscarinic receptor, the Emax fell in the range of 25 to 100% and the “M1 Activity” value was “+ (activity was measured to be greater than 5.0 μM)”. Besides, at M2 muscarinic receptor, the Emax was below 25% and the “M2 Activity” value is “+ (activity was measured to be greater than 5.0 μM)”. For the same molecule, on M3 muscarinic receptor, the Emax is below 25% and the “M3 Activity” value is “+ (activity was measured to be greater than 5.0 μM)”. Also, on M4 muscarinic receptor, the Emax is 25 to 100% and the “M4 Activity” value is listed as “++ (activity was measured to be from 1.0 μM to 5.0 μM)”.

For `Fc1ccccc1C1CCN(C2C[C@H]3CC[C@H]2C3)CC1` (stereo partly drawn) [Compound 259], the Emax on M1 muscarinic receptor is 25 to 100%; on M2 muscarinic receptor, below 25%; on M3 muscarinic receptor, below 25%; at M4 muscarinic receptor, 25 to 100%.

Regarding `CCc1ccc(OC)c(C2CCN([C@@H]3C[C@H]4CC[C@H]3C4)CC2)c1` [Compound 260], on M1 muscarinic receptor, the Emax lay in the range of 25 to 100% and the “M1 Activity” value is “+++ (activity was measured to be less than 1.0 μM)”. On M2 muscarinic receptor, the Emax was below 25% and the “M2 Activity” value is given as “+ (activity was measured to be greater than 5.0 μM)”. Further, at M3 muscarinic receptor, the Emax was below 25% and the “M3 Activity” value is given as “+ (activity was measured to be greater than 5.0 μM)”. On M4 muscarinic receptor, the Emax is 25 to 100% and the “M4 Activity” value is reported as “+++ (activity was measured to be less than 1.0 μM)”.

On to `Cc1ccc(C(F)(F)F)cc1C1CCN(C2C[C@H]3CC[C@H]2C3)CC1` (stereo partly drawn) [Compound 261], for which, on M1 muscarinic receptor, the Emax was in the range of 25 to 100% and the “M1 Activity” value is “+++ (activity was measured to be less than 1.0 μM)”. At M2 muscarinic receptor, the Emax was 25 to 100% and the “M2 Activity” value is “+ (activity was measured to be greater than 5.0 μM)”. On M3 muscarinic receptor, the Emax was below 25% and the “M3 Activity” value is reported as “+ (activity was measured to be greater than 5.0 μM)”. For the same molecule, at M4 muscarinic receptor, the Emax was in the range of 25 to 100% and the “M4 Activity” value was “++ (activity was measured to be from 1.0 μM to 5.0 μM)”.

As for `CCOC(=O)N1CCC(N2CCC(F)(c3cc(F)ccc3OC)CC2)CC1` [Compound 262], at M1 muscarinic receptor, the Emax is 25 to 100% and the “M1 Activity” value was “+++ (activity was measured to be less than 1.0 μM)”. Further, on M2 muscarinic receptor, the Emax was below 25% and the “M2 Activity” value is listed as “+ (activity was measured to be greater than 5.0 μM)”. For the same molecule, on M3 muscarinic receptor, the Emax was below 25% and the “M3 Activity” value is reported as “+ (activity was measured to be greater than 5.0 μM)”. In addition, at M4 muscarinic receptor, the Emax fell in the range of 25 to 100% and the “M4 Activity” value is listed as “+++ (activity was measured to be less than 1.0 μM)”.

Turning to `COc1ccc(-c2ccc(CC#N)cc2)cc1C1CCN(C2CCOCC2)CC1` [Compound 263], on M1 muscarinic receptor, the maximal effect (Emax) was below 25% and the “M1 Activity” value was “+ (activity was measured to be greater than 5.0 μM)”. On M2 muscarinic receptor, the Emax is below 25% and the “M2 Activity” value is recorded as “+ (activity was measured to be greater than 5.0 μM)”. Moreover, on M3 muscarinic receptor, the Emax was below 25% and the “M3 Activity” value is given as “+ (activity was measured to be greater than 5.0 μM)”. For the same molecule, at M4 muscarinic receptor, the Emax was below 25% and the “M4 Activity” value was “+ (activity was measured to be greater than 5.0 μM)”.

Turning to `CCOC(=O)N1CCC(CN2CCC(c3cc(C#N)ccc3OC)CC2)CC1` [Compound 264], on M1 muscarinic receptor, the maximal effect (Emax) lay in the range of 25 to 100% and the “M1 Activity” value is on record as “+++ (activity was measured to be less than 1.0 μM)”. At M2 muscarinic receptor, the Emax was below 25% and the “M2 Activity” value is “+ (activity was measured to be greater than 5.0 μM)”. In addition, on M3 muscarinic receptor, the Emax was below 25% and the “M3 Activity” value is “+ (activity was measured to be greater than 5.0 μM)”. Further, at M4 muscarinic receptor, the Emax lay in the range of 25 to 100% and the “M4 Activity” value is given as “+++ (activity was measured to be less than 1.0 μM)”.
